In article PMC10815964, “Cyclobutanone Inhibitors of Diaminopimelate Desuccinylase (DapE) as Potential New Antibiotics” (International Journal of Molecular Sciences, 2024):
Where “and” joins values, the source holds several entries; their conditions need not be identical. Identical values can stand only once. Like-named read-outs stand apart in the source and are kept apart here. Values belong to the compound of their own block, whether it stands above or below them.

Key:
[1] = molecular target: H. influenzae DapE (HiDapE) (Haemophilus influenzae, UniProt P44514); assay: Thermal shift assay (SYPRO Orange); format: binding
Description: A thermal shift assay was conducted to observe changes in the thermal stability of DapE under various concentrations of the inhibitor 3y, as summarized in Table 2. These studies were conducted on a Step One Real-Time PCR System and associated QuantStudio software (QuantStudio 5, Design and Analysis 2) through the fluorescence of the SYPRO Orange dye during protein denaturation. […] Upon addition of the inhibitor 3y, we observed a stabilization of the tertiary structure of the enzyme binding to the inhibitor, as indicated by a positive shift in the first melt temperature (Tm1). […] The thermal shift assay plot of Tm vs. log [3y (µM)] to determine the Ki of compound 3y is in the Supplementary Materials as Figure S82. […] Binding of a ligand most commonly leads to further stabilization of a protein, but destabilization as indicated by a lower Tm has been observed by others. Based on our previous work, [27] we observed sequential temperatures at which HiDapE was dissociating via circular dichroism: first at about 60 °C, which we hypothesize is the dimer dissociating, and a second at about 80 °C, which may represent denaturation of the monomer.
H. influenzae DapE was used at a final concentration of 200 nM and SYPRO Orange was used at a final concentration of 10×. It was performed in a Step One Real-Time PCR System (Applied Biosystems, Waltham, MA, USA). The experiment was carried out in 10 µL triplicates in 50 mM HEPES buffer at pH 7.5, nanopure water, and the inhibitor concentrations were based on the IC50 values of the inhibitor, 3y. Sample solutions were dispensed into a 96-well optical reaction plate (Thermo Fisher Scientific, Waltham, […], USA) and the plate was sealed with an optical PCR plate sheet (Thermo Fisher Scientific). […] Melting curves were obtained from the negative derivative and exported from the instrument into Excel. The negative melting temperatures were smoothed and differentiated to the negative third derivative. The Tm data were plotted against the log(concentration of 3y) with GraphPad Prism using a derived Van’t Hoff equation [39] to find the Ki value.

[2] = Cyclobutanone/hydrate equilibrium by NMR; format: physicochemical
Excerpt: Cyclobutanone 3y is soluble in CDCl3, but we wanted to vary the amount of D2O, and water has a solubility of only 0.815% in chloroform, so varying the quantity of D2O would not alter the concentration of D2O in CDCl3 solution once saturation is reached. We therefore selected DMSO-d6 as the solvent to enable the varying of the D2O concentration, which also provides a more polar environment that is more conducive to hydrate formation and is a better mimic of the environment of the enzyme in aqueous media. The ratio of hydrate to ketone was determined by the ratio of the integrals of the proton alpha to the hydrate/carbonyl and the α-amino group, which was 4.67 ppm for the hydrate in DMSO-d6 + 20% D2O and 4.40 ppm for the cyclobutanone ketone in DMSO-d6 + 20% D2O.
Cyclobutanone 3y was massed to 2–3 mg and the exact mass was recorded. Compound 3y was then dissolved in the appropriate amount of deuterated solvent (DMSO-d6 or CDCl3) and vortexed. The appropriate amount of deuterium oxide (0%, 2%, 10%, 20%, or 30%) was added to the sample and the sample was vortexed. The sample was inserted into the Bruker 500 MHz NMR and data were collected for 64 scans. The raw data were analyzed with the Mnova NMR program, and the Keq was calculated via the method described by the Wiberg group.

HiDapE = HiDapE (Haemophilus influenzae, UniProt P44514); assay: DapE inhibition, ninhydrin-based assay; format: biochemical; conditions: for inhibition at 100 µM: 100 µM inhibitor, read-out: DapE % Inhib at 100 µM; for IC50: ninhydrin assay
Description: All compounds were screened for DapE inhibitory potency using a ninhydrin-based assay at 100 μM, and IC50 values were determined for molecules that inhibited DapE > 70% at 100 μM (Table 1). Some SAR trends emerge from the data.
Experimental IC50 curves for cyclobutanone inhibitors against DapE were identified as sigmoidal shaped response curves, as opposed to simple hyperbolic plots. […] IC50 curves with the corresponding Hill coefficients are reported in the Supplementary Materials as Figures S74−S81. Experimental Hill coefficients may provide information on the number of binding sites of a biological target (receptors and enzymes) interacting with ligands.
The inhibition of HiDapE by potential inhibitors was assessed using the previously developed ninhydrin assay with slight modifications. It was performed in a PCR Thermal Cycler System. All experiments were performed in triplicate in 50 mM HEPES buffer at pH 7.5. Reaction volumes were 100 µL of 2 mM N^6-Methyl-L,L-SDAP and 8 nM HiDapE. Ninhydrin was purchased as a 2% solution in 100% DMSO/lithium acetate buffer at pH 5.2. The inhibitor, followed by HiDapE, was added to a 50 mM HEPES (pH 7.5) buffered solution at 30 °C, and the mixture was incubated at 30 °C for 10 min. N^6-Methyl-L,L-SDAP was added, and the reaction mixture was incubated at 30 °C for 10 min, then heated to 99 °C for 1 min, and further cooled to 0 °C for 1 min. The 2% ninhydrin solution (50 µL) was added, and the mixture was thoroughly mixed. The reaction mixture was heated to 80 °C for 15 min, then cooled to 0 °C for 1 min. The absorbance of an 80 μL aliquot was recorded at 570 nm on a BioTek Synergy 2 microplate reader. All the inhibition assays of HiDapE were performed in triplicate and the IC50 values were obtained by fitting the data following the modified Hill equation: V = V0 + (Vmax − V0) XnH/(XnH0.5 + XnH) using the graphing suite Origin 9.1 with the Levenberg–Marquardt non-linear least-squares algorithm. The velocity in the absence of the substrate is […]; the velocity at saturating concentrations of the substrate or with no inhibitor for the inhibition assay is Vmax; X is the concentration of the substrate or inhibitor; and X0.5 is the substrate (S0.5) and inhibitor (I0.5) concentration at 50% maximum velocity and at 50% inhibition, respectively. The Hill coefficient is represented as nH.

[3] = design: method as in doi:10.1021/ja00103a024; conditions: in D2O, cited from earlier work
DapE = conditions: cited from earlier work

H. influenzae DapE (HiDapE), sequence (P44514 whole entry): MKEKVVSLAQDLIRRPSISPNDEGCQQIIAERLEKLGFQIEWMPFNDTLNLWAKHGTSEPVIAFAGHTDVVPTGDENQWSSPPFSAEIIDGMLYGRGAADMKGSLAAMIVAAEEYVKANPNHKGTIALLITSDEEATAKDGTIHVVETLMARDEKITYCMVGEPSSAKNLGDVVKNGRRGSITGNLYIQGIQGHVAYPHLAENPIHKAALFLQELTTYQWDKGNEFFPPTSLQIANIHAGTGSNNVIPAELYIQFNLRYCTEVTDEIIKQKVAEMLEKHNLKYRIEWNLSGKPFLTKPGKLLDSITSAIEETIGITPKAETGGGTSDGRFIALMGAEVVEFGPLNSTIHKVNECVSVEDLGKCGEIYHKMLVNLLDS
HiDapE, sequence (P44514 whole entry): as above

SMILES: O=C1CCC1 [Cyclobutanone, cyclobutanone]
- % Hydrate [3]: 2.0%
- Keq = [hydrate]/[ketone] [3]: 2.8 × 10^−3
- % Hydrate ([3]; listed as cyclobutanone): about 2%

SMILES: C[C@H](CS)C(=O)N1CCC[C@H]1C(=O)O [captopril]
- DapE inhibition (DapE): low micromolar inhibitor

Now from value to compound:

- Tm1 ([1]; 200 nM HiDapE + 1 μM 3y): 49.6 +/− 0.18 °C
- Tm2 ([1]; 200 nM HiDapE + 1 μM 3y): 76.5 +/− 0.54 °C
- Tm1 ([1]; 200 nM HiDapE + 5 μM 3y): 49.0 +/− 0.30 °C
- Tm2 ([1]; 200 nM HiDapE + 5 μM 3y): 77.3 +/− 0.20 °C
- Tm1 ([1]; 200 nM HiDapE + 10 μM 3y): 50.0 +/− 0.34 °C
- Tm2 ([1]; 200 nM HiDapE + 10 μM 3y): 77.3 +/− 0.23 °C
- Tm1 ([1]; 200 nM HiDapE + 20 μM 3y): 51.2 +/− 0.13 °C
- Tm2 ([1]; 200 nM HiDapE + 20 μM 3y): 77.3 +/− 0.51 °C
- Tm1 ([1]; 200 nM HiDapE + 30 μM 3y): 52.1 +/− 0.5 °C
- Tm2 ([1]; 200 nM HiDapE + 30 μM 3y): 75.1 +/− 0.17 °C
- Tm1 ([1]; 200 nM HiDapE + 40 μM 3y): 52.7 +/− 0.37 °C
- Tm2 ([1]; 200 nM HiDapE + 40 μM 3y): 75.2 +/− 0.11 °C
- Tm1 ([1]; 200 nM HiDapE + 50 μM 3y): 53.4 +/− 0.23 °C
- Tm2 ([1]; 200 nM HiDapE + 50 μM 3y): 74.7 +/− 0.40 °C
- Tm1 ([1]; 200 nM HiDapE + 60 μM 3y): 54.1 +/− 0.35 °C
- Tm2 ([1]; 200 nM HiDapE + 60 μM 3y): 75.1 +/− 0.23 °C
- Tm1 ([1]; 200 nM HiDapE + 75 μM 3y): 54.6 +/− 0.42 °C
- Tm2 ([1]; 200 nM HiDapE + 75 μM 3y): 75.7 °C and 75.7 +/− 0.29 °C
- Ki ([1]; from Tm1 vs log[3y], 200 nM HiDapE): 10.2 µM
- melting point: 179 to 181 °C
- % Hydrate ([2]; CDCl3 + 30% D2O): 7.33%
- Keq = [hydrate]/[ketone] ([2]; CDCl3 + 30% D2O (saturated with D2O)): 0.082
- % Hydrate ([2]; DMSO-d6 + 2% D2O): 35.4%
- Keq = [hydrate]/[ketone] ([2]; DMSO-d6 + 2% D2O): 0.58
- % Hydrate ([2]; DMSO-d6 + 10% D2O): 38.8%
- Keq = [hydrate]/[ketone] ([2]; DMSO-d6 + 10% D2O): 0.61
- % Hydrate ([2]; DMSO-d6 + 20% D2O): 40%
- inhibition at 100 µM (HiDapE): 99.7%
- IC50 (HiDapE): 23.1 ± 0.9 µM
SMILES: COc1ccc(S(=O)(=O)N[C@@H](C(=O)NC2CCC2=O)C(C)C)cc1 (mixture of isomers) [3y, (2R)-2-((4-Methoxyphenyl)sulfonamido)-3-methyl-N-(2-oxocyclobutyl)butanamide]

- melting point: 104 to 105 °C
- inhibition at 100 µM (HiDapE): 27%
SMILES: COc1cccc(CC(=O)NC2CCC2=O)c1 (stereo not shown) [3s, 2-(3-Methoxyphenyl)-N-(2-oxocyclobutyl)acetamide]

- melting point: 124 to 127 °C
- inhibition at 100 µM (HiDapE): 59%
SMILES: O=C(Cc1ccc(Br)cc1)NC1CCC1=O (stereo not shown) [3t, 2-(4-Bromophenyl)-N-(2-oxocyclobutyl)acetamide]

- melting point: 179 to 181 °C
- inhibition at 100 µM (HiDapE): 84.7%
- IC50 (HiDapE): 52.4 ± 7.4 µM
SMILES: O=C(CCc1nc2ccccc2[nH]1)NC1CCC1=O (stereo not shown) [3u]
